# Experimental data from patent US8536157B2, “Non-steroidal compounds” (The University of Melbourne, priority 2007, dated 2013).
# What was measured:
# [1] = biological target: proteins in rat lung membranes; experiment: Competitive binding assay with [3H]-CP2117 on rat lung membranes (RLM); conditions: given as Log IC50 (negative values); displacement of 10 nM [3H]-CP2117, overnight at 4° C.; ND- not detected
# [2] = test system: PGE2 release in J774 macrophages; experiment: PGE2 release from LPS/IFNγ-stimulated J774 macrophages (radioimmunoassay); format: cell-based, murine; conditions: 30 min pre-treatment, 24 hour incubation; for activity at 10 µM / activity at 1 µM: Mus musculus, J774, 24 h; for activity at 10 µM: read-out: Effects on PGE2 release in J774 macrophages at l0 μM as a % of LPS/IFNγ control, mean; for activity at 1 µM: read-out: Effects on PGE2 release in J774 macrophages at 1 μM as a % of LPS/IFNγ control, mean
Log IC50 RLM binding [1],SMILES,activity at 10 µM ([2]; l0 μM) [%],also measured
−6.26,"COc1cc(-c2ccc(Cl)cc2)c(/C(C)=N/OCc2ccc([N+](=O)[O-])cc2)cc1O [CP30340, (E)-2′-(4-Chlorophenyl)-5′-hydroxy-4′-methoxyacetophenone O-4-Nitrobenzyl Oxime]",51,–
−6.23,"COc1cc(-c2ccc(OC(F)(F)F)cc2)c(/C(C)=N/OCc2ccc([N+](=O)[O-])cc2)cc1O [CP30343, (E)-2′-(4-Trifluoromethoxyphenyl)-5′-hydroxy-4′-methoxyacetophenone O-4-Nitrobenzyl Oxime]",51,activity at 1 µM [2]: 65%
–,"COc1ccc(/C(C)=N/OCc2ccc([N+](=O)[O-])cc2)cc1OC [CP30257, (E)-3′,4′-Dimethoxyacetophenone O-4-Nitrobenzyl Oxime]",–,melting point: 118.4 to 121 °C
−5.28,"C/C(=N\OCc1ccc2nonc2c1)c1ccc(F)c(O)c1 [CP9135, 4′-Fluoro-3′-hydroxyacetophenone-O—[(benzo[c][1,2,5]oxadiazol-5-yl)methyl]oxime]",90,activity at 1 µM [2]: 66%
−5.9,"C/C(=N\OCc1ccc2nonc2c1)c1ccc(O)c(F)c1 [CP9128, 3′-Fluoro-4′-hydroxyacetophenone-O-[(benzo[c][1,2,5]oxadiazol-5-yl)methyl]oxime]",65,activity at 1 µM [2]: 62%
−6.18,"COc1cc(C2CCCCC2)c(C(C)=NOCc2ccc([N+](=O)[O-])cc2)cc1O [CP30424, 2′-Cyclohexyl-5′-hydroxy-4′-methoxyacetophenone O-4-Nitrobenzyl Oxime]",–,activity at 1 µM [2]: 83%
–,"COc1ccc(/C(C)=N/OCc2ccc([N+](=O)[O-])cc2)cc1OC(C)C [CP30254, (E)-3′-Isopropoxy-4′-methoxyacetophenone O-4-Nitrobenzyl Oxime]",–,melting point: 44.5 to 46.1 °C
−6.16,"COc1ccc(/C(C)=N/OCc2ccc(F)c(F)c2)cc1O [CP30281, (E)-3′-Hydroxy-4′-methoxyacetophenone O-3,4-Difluorobenzyl Oxime]",–,–
−6.46,"COC(=O)c1ccc(CO/N=C(\C)c2ccc(OC)c(O)c2)cc1 [CP30263, (E)-3′-Hydroxy-4′-methoxyacetophenone O-4-Carbomethoxybenzyl Oxime]",–,melting point: 97.7 to 98.7 °C
–,"COc1ccc(/C(C)=N/OCc2ccc(F)c(F)c2)cc1F [CP9126, 3′-Fluoro-4′-methoxyacetophenone-O-3,4-difluorobenzyloxime]",–,melting point: 62 to 63 °C
−6.14,"COc1cc(-c2ccc(OC)c(OC)c2)c(/C(C)=N/OCc2ccc([N+](=O)[O-])cc2)cc1O [CP30331, (E)-5′-Hydroxy-4′-methoxy-2′-(3,4-dimethoxyphenyl)acetophenone O-4-Nitrobenzyl Oxime]",28,–
−6.02,"COc1ccc(C(=NOCc2ccc([N+](=O)[O-])cc2)[C@H]2CC[C@@H](CCO)CC2)cc1O [CP30348-1, cis-(3-Hydroxy-4-methoxyphenyl)-4-(2-hydroxyethyl)cyclohexylmethanone O-4-Nitrobenzyl Oxime]",91,"Effects on PGE2 release in J774 macrophages at 1 μM as a % of LPS/IFNγ control, mean [2]: 124 % of LPS/IFNγ control"
−6.96,"COc1ccc(/C(C)=N/OCc2cccc(C)c2)cc1O [CP30264, (E)-3′-Hydroxy-4′-methoxyacetophenone O-3-Methylbenzyl Oxime]",74,activity at 1 µM [2]: 77%
–,"C/C(=N\OCc1ccc([N+](=O)[O-])cc1)c1cccc(O)c1 [CP30260, (E)-3′-Hydroxyacetophenone O-4-Nitrobenzyl Oxime]",–,melting point: 123.6 to 125.3 °C
−6.48,"COc1cc2c(cc1O)/C(=N/OCc1ccc([N+](=O)[O-])cc1)CCC2 [TB76, (E)-7-Hydroxy-6-methoxy-3,4-dihydronaphthalen-1(2H)-one O-4-Nitrobenzyl Oxime]",–,–
−5.6,"COc1ccc(C(=NOCc2ccc([N+](=O)[O-])cc2)[C@H]2CC[C@@H](CCO)CC2)cc1O [CP30348-2, cis-(3-Hydroxy-4-methoxyphenyl)-4-(2-hydroxyethyl)cyclohexylmethanone O-4-Nitrobenzyl Oxime]",–,"Effects on PGE2 release in J774 macrophages at 1 μM as a % of LPS/IFNγ control, mean [2]: 85 % of LPS/IFNγ control; Effects on PGE2 release in J774 macrophages at l0 μM as a % of LPS/IFNγ control, mean ([2]; l0 μM): 111 % of LPS/IFNγ control"
–,"COc1ccc(/C(C)=N/OCc2ccc([N+](=O)[O-])cc2)cc1F [CP9123, 3′-Fluoro-4′-methoxyacetophenone-O-4-nitrobenzyloxime]",–,melting point: 67 to 68 °C
–,"COc1cc(/C(C)=N/OCc2ccc3nonc3c2)ccc1F [CP9129, 4′-Fluoro-3′-methoxyacetophenone-O-[(benzo[c][1,2,5]oxadiazol-5-yl)methyl]oxime]",–,melting point: 65 °C

Log IC50 RLM binding [1],SMILES,activity at 10 µM ([2]; l0 μM) [%],also measured
−6.16,"COc1cc2c(cc1O)/C(=N/OCc1ccc([N+](=O)[O-])cc1)CC2 [TB81, (E)-6-Hydroxy-5-methoxy-2,3-dihydroinden-1-one O-4-Nitrobenzyl Oxime]",–,–
−6.91,"COc1cc2c(cc1O)/C(=N/OCc1ccc3nonc3c1)CCC2 [Compound 2-TB-146, (E)-7-Hydroxy-6-methoxy-3,4-dihydronaphthalen-1(2H)-one O-benzo[c][1,2,5]oxadiazol-5-ylmethyl oxime]",–,–
−6.5,"COc1ccc(/C(C)=N/OCc2ccccc2F)cc1O [CP30280, (E)-3′-Hydroxy-4′-methoxyacetophenone O-2-Fluorobenzyl Oxime]",–,–
–,"C/C(=N\OCc1ccc([N+](=O)[O-])cc1)c1ccccc1 [CP30252, (E)-Acetophenone O-4-Nitrobenzyl Oxime]",–,melting point: 91.3 to 92.3 °C
−6.9,"COc1ccc(/C(C)=N/OCc2ccc(F)cc2)cc1O [CP30266, (E)-3′-Hydroxy-4′-methoxyacetophenone O-4-Fluorobenzyl Oxime]",–,–
−6.43,"COc1cc2c(cc1O)/C(=N/OCc1ccc3nonc3c1)CC2 [Compound 2-TB-147, (E)-6-Hydroxy-5-methoxy-2,3-dihydro-1H-inden-1-one O-benzo[c][1,2,5]oxadiazol-5-ylmethyl oxime]",–,–
–,"COc1cc2c(cc1OC)/C(=N/OCc1ccc([N+](=O)[O-])cc1)CC2 [TB54, (E)-5,6-Dimethoxy-2,3-dihydroinden-1-one O-4-Nitrobenzyl Oxime]",78,activity at 1 µM [2]: 95%
−5.43,"COc1cc(-c2ccc(F)cc2)c(/C(C)=N/OCc2ccc([N+](=O)[O-])cc2)cc1O [CP30344, (E)-2′-(4-Fluorophenyl)-5′-hydroxy-4′-methoxyacetophenone O-4-Nitrobenzyl Oxime]",94,activity at 1 µM [2]: 111%
−6.2,"COc1cc(-c2ccccc2)c(/C(C)=N/OCc2ccc([N+](=O)[O-])cc2)cc1O [CP30329, (E)-5′-Hydroxy-4′-methoxy-2′-phenylacetophenone O-4-Nitrobenzyl Oxime]",55,–
−6.41,"COc1ccc(/C(C)=N/OCc2cccc(OC(F)(F)F)c2)cc1O [CP30282, (E)-3′-Hydroxy-4′-methoxyacetophenone O-3-Trifluoromethoxybenzyl Oxime]",–,–
–,"COc1cc(-c2ccc(N)cc2)c(/C(C)=N/OCc2ccc([N+](=O)[O-])cc2)cc1O [CP30381, (E)-2′-(4-Aminophenyl)-5′-hydroxy-4′-methoxyacetophenone O-4-Nitrobenzyl Oxime]",–,activity at 1 µM [2]: 62%
–,"C/C(=N\OCc1ccc([N+](=O)[O-])cc1)c1ccc(O)c(F)c1 [CP9132, 3′-Fluoro-4′-hydroxyacetophenone-O-4-nitrobenzyloxime]",–,melting point: 93 to 94 °C
–,"C/C(=N\OCc1ccc([N+](=O)[O-])cc1)c1ccc2c(c1)OCO2 [CP30255, (E)-3′,4′-Methylenedioxyacetophenone O-4-Nitrobenzyl Oxime]",–,melting point: 158.7 to 160.5 °C
−6.88,"COc1ccc(/C(C)=N/OCc2cccc(F)c2)cc1O [CP30262, (E)-3′-Hydroxy-4′-methoxyacetophenone O-3-Fluorobenzyl Oxime]",–,–
−5.75,"COc1ccc(C(=NOCc2ccc([N+](=O)[O-])cc2)[C@H]2CC[C@H](CCO)CC2)cc1O [CP30347, trans-(3-Hydroxy-4-methoxyphenyl)-4-(2-hydroxyethyl)cyclohexylmethanone O-4-Nitrobenzyl Oxime]",68,activity at 1 µM [2]: 102%
−5.81,"COc1cc([C@H]2CC[C@@](C)(CO)CC2)c(C(C)=NOCc2ccc3nonc3c2)cc1O [CP30453, 2′-(4-Hydroxymethyl-4-methyl)cyclohexyl-5′-hydroxy-4′-methoxyacetophenone O-(benzofurazan-5-yl)methyl Oxime]",–,–
–,"COc1cc(Br)c(/C(C)=N/OCc2ccc([N+](=O)[O-])cc2)cc1O [CP302108-Major, (E)-2′-Bromo-5′-hydroxy-4′-methoxyacetophenone O-4-Nitrobenzyl Oxime]",–,melting point: 136.8 to 138.4 °C

SMILES,Log IC50 RLM binding [1],activity at 10 µM ([2]; l0 μM) [%],also measured
"COc1cc(-c2cccc(NC(=O)OC(C)(C)C)c2)c(/C(C)=N/OCc2ccc([N+](=O)[O-])cc2)cc1O [CP30339, (E)-2′-(3-tert-Butoxycarbonylaminophenyl)-5′-hydroxy-4′-methoxyacetophenone O-4-Nitrobenzyl Oxime]",−6.64,36,–
"COc1ccc(-c2cc(OC)c(O)cc2/C(C)=N/OCc2ccc([N+](=O)[O-])cc2)cc1 [CP30338, (E)-5′-Hydroxy-4′-methoxy-2′-(4-methoxyphenyl)acetophenone O-4-Nitrobenzyl Oxime]",−6.88,–,–
